From the CheMixHub viscosity set
± gives the uncertainty stated by the source.

Assay: xn = mol fraction of the nth substance listed

C1CCCCC1 + c1ccccc1
Conditions | viscosity [mPa·s]
298.15 K, 101.33 kPa, x2 = 0.15 | 0.7725 ± 0.02
298.15 K, 101.33 kPa, x2 = 0.2174 | 0.7122 ± 0.018
298.15 K, 101.33 kPa, x2 = 0.2438 | 0.7115 ± 0.019
298.15 K, 101.33 kPa, x2 = 0.3364 | 0.6599 ± 0.017
298.15 K, 101.33 kPa, x2 = 0.35 | 0.6571 ± 0.017
298.15 K, 101.33 kPa, x2 = 0.4874 | 0.6124 ± 0.016
298.15 K, 101.33 kPa, x2 = 0.5 | 0.612 ± 0.016
298.15 K, 101.33 kPa, x2 = 0.549 | 0.6011 ± 0.016
298.15 K, 101.33 kPa, x2 = 0.647 | 0.5879 ± 0.015
298.15 K, 101.33 kPa, x2 = 0.65 | 0.5853 ± 0.015
298.15 K, 101.33 kPa, x2 = 0.7814 | 0.583 ± 0.015
298.15 K, 101.33 kPa, x2 = 0.7848 | 0.574 ± 0.015
298.15 K, 101.33 kPa, x2 = 0.9 | 0.5761 ± 0.015
298.15 K, 101.33 kPa, x2 = 0.9033 | 0.5926 ± 0.015
303.15 K, 101 kPa, x1 = 0.0989 | 0.5467 ± 0.004
303.15 K, 101 kPa, x1 = 0.1983 | 0.5433 ± 0.004
303.15 K, 101 kPa, x1 = 0.3019 | 0.5485 ± 0.004
303.15 K, 101 kPa, x1 = 0.3998 | 0.5602 ± 0.004
303.15 K, 101 kPa, x1 = 0.5035 | 0.5792 ± 0.0041
303.15 K, 101 kPa, x1 = 0.6015 | 0.6041 ± 0.0042
303.15 K, 101 kPa, x1 = 0.7002 | 0.6378 ± 0.0044
303.15 K, 101 kPa, x1 = 0.7987 | 0.6822 ± 0.0046
303.15 K, 101 kPa, x1 = 0.8977 | 0.7447 ± 0.0048
303.15 K, 101 kPa, x2 = 0.094 | 0.755 ± 0.015
303.15 K, 101 kPa, x2 = 0.1043 | 0.7412 ± 0.008
303.15 K, 101 kPa, x2 = 0.2011 | 0.6892 ± 0.0076
303.15 K, 101 kPa, x2 = 0.251 | 0.658 ± 0.013
303.15 K, 101 kPa, x2 = 0.3015 | 0.6418 ± 0.0073
303.15 K, 101 kPa, x2 = 0.4038 | 0.6099 ± 0.0071
303.15 K, 101 kPa, x2 = 0.418 | 0.594 ± 0.012
303.15 K, 101 kPa, x2 = 0.5005 | 0.5913 ± 0.007
303.15 K, 101 kPa, x2 = 0.582 | 0.566 ± 0.012
303.15 K, 101 kPa, x2 = 0.6032 | 0.5734 ± 0.0069
303.15 K, 101 kPa, x2 = 0.7006 | 0.5632 ± 0.0069
303.15 K, 101 kPa, x2 = 0.736 | 0.55 ± 0.011
303.15 K, 101 kPa, x2 = 0.7996 | 0.5634 ± 0.0069
303.15 K, 101 kPa, x2 = 0.891 | 0.555 ± 0.011
303.15 K, 101 kPa, x2 = 0.9011 | 0.5689 ± 0.0069
303.45 K, 101.33 kPa, x1 = 0.7 | 0.6645 ± 0.0077
303.55 K, 101.33 kPa, x1 = 0.5 | 0.6035 ± 0.007
303.65 K, 101.33 kPa, x1 = 0.4 | 0.5874 ± 0.0068
303.75 K, 101.33 kPa, x1 = 0.3 | 0.5794 ± 0.0067
304.25 K, 101.33 kPa, x1 = 0.85 | 0.7288 ± 0.0085
304.55 K, 101.33 kPa, x1 = 0.6 | 0.6189 ± 0.0072
306.35 K, 101.33 kPa, x1 = 0.2 | 0.5538 ± 0.0064
308.15 K, 101 kPa, x2 = 0.1043 | 0.6842 ± 0.0076
308.15 K, 101 kPa, x2 = 0.2011 | 0.6409 ± 0.0073
308.15 K, 101 kPa, x2 = 0.3015 | 0.5971 ± 0.0071
308.15 K, 101 kPa, x2 = 0.4038 | 0.5697 ± 0.0069
308.15 K, 101 kPa, x2 = 0.5005 | 0.5535 ± 0.0068
308.15 K, 101 kPa, x2 = 0.6032 | 0.537 ± 0.0067
308.15 K, 101 kPa, x2 = 0.7006 | 0.5274 ± 0.0067
308.15 K, 101 kPa, x2 = 0.7996 | 0.5266 ± 0.0067
308.15 K, 101 kPa, x2 = 0.9011 | 0.5325 ± 0.0067
312.15 K, 101.33 kPa, x1 = 0.1 | 0.5154 ± 0.006
312.65 K, 101.33 kPa, x1 = 0.4 | 0.5272 ± 0.0061
312.65 K, 101.33 kPa, x1 = 0.5 | 0.5397 ± 0.0063
312.75 K, 101.33 kPa, x1 = 0.3 | 0.5184 ± 0.006
312.85 K, 101.33 kPa, x1 = 0.6 | 0.5535 ± 0.0064
313.15 K, 101 kPa, x2 = 0.094 | 0.651 ± 0.013
313.15 K, 101 kPa, x2 = 0.1043 | 0.6342 ± 0.0073
313.15 K, 101 kPa, x2 = 0.2011 | 0.5944 ± 0.0071
313.15 K, 101 kPa, x2 = 0.251 | 0.574 ± 0.012
313.15 K, 101 kPa, x2 = 0.3015 | 0.5574 ± 0.0068
313.15 K, 101 kPa, x2 = 0.4038 | 0.5315 ± 0.0067
313.15 K, 101 kPa, x2 = 0.418 | 0.53 ± 0.011
313.15 K, 101 kPa, x2 = 0.5005 | 0.5172 ± 0.0067
313.15 K, 101 kPa, x2 = 0.582 | 0.499 ± 0.01
313.15 K, 101 kPa, x2 = 0.6032 | 0.5037 ± 0.0066
313.15 K, 101 kPa, x2 = 0.7006 | 0.494 ± 0.0065
313.15 K, 101 kPa, x2 = 0.736 | 0.489 ± 0.01
313.15 K, 101 kPa, x2 = 0.7996 | 0.4952 ± 0.0065
313.15 K, 101 kPa, x2 = 0.891 | 0.49 ± 0.01
313.15 K, 101 kPa, x2 = 0.9011 | 0.4973 ± 0.0066
313.25 K, 101.33 kPa, x1 = 0.2 | 0.5122 ± 0.0059
314.15 K, 101.33 kPa, x1 = 0.85 | 0.6325 ± 0.0074
315.75 K, 101.33 kPa, x1 = 0.7 | 0.5676 ± 0.0066
322.55 K, 101.33 kPa, x1 = 0.6 | 0.5006 ± 0.0058
322.85 K, 101.33 kPa, x1 = 0.85 | 0.567 ± 0.0066
322.95 K, 101.33 kPa, x1 = 0.1 | 0.4571 ± 0.0053
322.95 K, 101.33 kPa, x1 = 0.4 | 0.4739 ± 0.0055
323.15 K, 100 kPa, x2 = 0.2504 | 0.5258 ± 0.014
323.15 K, 100 kPa, x2 = 0.4997 | 0.4555 ± 0.012
323.15 K, 100 kPa, x2 = 0.7497 | 0.4303 ± 0.012
323.15 K, 101 kPa, x2 = 0.094 | 0.567 ± 0.012
323.15 K, 101 kPa, x2 = 0.251 | 0.506 ± 0.01
323.15 K, 101 kPa, x2 = 0.418 | 0.471 ± 0.01
323.15 K, 101 kPa, x2 = 0.582 | 0.445 ± 0.009
323.15 K, 101 kPa, x2 = 0.736 | 0.442 ± 0.009
323.15 K, 101 kPa, x2 = 0.891 | 0.438 ± 0.009
